Assay results as given in the NIST ThermoML archive (doi:10.1016/j.tca.2004.11.015).

Test: xn = mol fraction of the nth substance listed
Conditions: 101.33 kPa, Liquid, Vibrating tube method

NCCO [2-aminoethan-1-ol] + CO
mass density [kg/m3]
Conditions | 318.15 K | 323.15 K | 328.15 K | 333.15 K
x1 = 0.012 | – | 768.02 | 763.16 | 758.24
x1 = 0.031 | – | 776.31 | 771.48 | 766.6
x1 = 0.05 | – | 784.19 | 779.4 | 774.56
x1 = 0.1 | – | 804.01 | 799.31 | 794.56
x1 = 0.15 | – | 822.17 | 817.54 | 812.87
x1 = 0.2002 | – | 839.11 | 834.54 | 829.94
x1 = 0.2501 | – | 854.48 | 849.96 | 845.4
x1 = 0.2974 | 872.55 | 868.11 | 863.65 | 859.14
x1 = 0.3502 | 886.63 | 882.25 | 877.83 | 873.37
x1 = 0.4001 | 898.67 | 894.33 | 889.95 | 885.53
x1 = 0.4427 | 908.45 | 904.14 | 899.79 | 895.41
x1 = 0.4502 | 910.28 | 905.97 | 901.63 | 897.26
x1 = 0.5002 | 920.74 | 916.46 | 912.15 | 907.81
x1 = 0.5501 | 930.55 | 926.3 | 922.03 | 917.72
x1 = 0.6001 | 939.84 | 935.62 | 931.37 | 927.1
x1 = 0.6501 | 948.51 | 944.31 | 940.1 | 935.85
x1 = 0.7005 | 956.89 | 952.72 | 948.53 | 944.32
x1 = 0.7479 | 963.92 | 959.78 | 955.62 | 951.43
x1 = 0.8002 | 971.82 | 967.71 | 963.57 | 959.42
x1 = 0.8502 | 978.32 | 974.23 | 970.12 | 965.99
x1 = 0.8967 | 984.55 | 980.48 | 976.39 | 972.29
x1 = 0.9501 | 990.85 | 986.81 | 982.75 | –
